Measured values from PMC12610274, “Identification of Marrubiin as a Cathepsin C Inhibitor for Treating Rheumatoid Arthritis” (Molecules, 2025).

Legend:
[1] = molecular target: Dipeptidyl Peptidase 4 (Homo sapiens, UniProt P27487); experiment: Recombinant dipeptidyl peptidases isolated enzyme assay, DPP4; type: biochemical; conditions: read-out: Dipeptidyl Peptidase 4 Enz (IC50: μM)
Text: Table 3 Inhibitory effects of marrubiin on dipeptidyl peptidase. | column: Dipeptidyl Peptidase 4 Enz (IC50: μM)

[2] = molecular target: CTSC (Homo sapiens, UniProt P53634); experiment: CTSC activity in U937 cells after 5 days of treatment; type: cell-based; parameters: endogenous in cells; host or cells: U937; conditions: U937, 5 days, marrubiin and AZD7986 at the same concentration
Procedure: U937 cells in the logarithmic growth phase were collected and equally divided into six portions. Four of these portions were treated with DMSO solutions of the test compound at varying concentrations to achieve final concentrations of 1.25, 2.5, 5, and 10 μM, respectively. An equal volume of DMSO was added to one portion as a blank control, while another portion treated with a DMSO solution of AZD7986 served as a positive control. The cells were cultured under standard U937 conditions for 5 consecutive days, with daily medium changes and fresh compound treatments administered using the same protocol. Following 5 days of treatment, cells were harvested, washed twice thoroughly with phosphate-buffered saline, and lysed in phosphate-buffered saline containing 1% Triton X-100. The lysates were centrifuged to collect the supernatant, and protein concentrations were determined as previously described to ensure equal total protein loading across all samples. The prepared samples were stored at −20 °C until further analysis. Different assay buffers were prepared for diluting samples and measuring the activities of specific NSPs: a buffer containing 50 mM Tris and 750 mM NaCl (pH 7.4) was used for NE and PR3; a buffer containing 50 mM Tris, 750 mM NaCl, 5 mM EDTA (pH 7.4) was used for Cat G; and a buffer containing 25 mM MES, 50 mM NaCl, 5 mM DTT (pH 6.0) was used for CTSC. […]

[3] = Safety evaluation in vivo (body weight, toxic reactions, H&E staining); conditions: mice, high-dose group (30 mg/kg)
Procedure: A total of 25 C57BL/6 mice (6–8 weeks old, weighing approximately 20 g, with equal numbers of males and females) were randomly divided into five groups. Mice in the compound-treated groups were orally administered the compound once daily at doses of 0.3, 3, and 30 mg/kg for 7 consecutive days. […] Mice in the normal group were given an equal volume of normal saline at the same time points. The body weight, death rate, and behavior were observed and recorded daily for one week. After 7 days, bone marrow and blood samples were collected from the mice and lysed using 8% Triton X-100 buffer. The lysates were stored at −20 °C until testing. The activity assays for CTSC and NSPs were performed as described above. The mice were anesthetized and the tissues were taken for H&E staining.

[4] = test system: IL-1β, TNF-α, MCP-1, CXCL2 in serum; experiment: AIA model, serum cytokines by ELISA; type: in vivo, Sprague-Dawley rats; conditions: rat AIA, high-dose group (60 mg/kg)
Procedure: (§1) Thirty 4-week-old male Sprague-Dawley rats (weighing 120–130 g) were randomly divided into 6 groups (5 rats per group) after 1 week of adaptive feeding, namely the normal group, model group, low-dose experimental group (15 mg/kg), medium-dose experimental group (30 mg/kg), high-dose experimental group (60 mg/kg), and positive control group (30 mg/kg). Starting from Day 0 of the experiment, rats in the administration groups and model group were injected intradermally with 0.1 mL of CFA into the left hind paw to induce AIA, while rats in the normal group were injected intradermally with an equal volume (0.1 mL) of normal saline as a control. After 13 consecutive days of feeding, rats treated with CFA successfully developed typical AIA symptoms. […] During the experiment, the body weight, mental state, activity ability, hair color changes, and paw appearance changes of the rats were observed and recorded daily. In addition, on Day 0 of the experiment (baseline period), the basic paw volume of all rats was accurately measured using a plethysmometer, which served as a reference standard for subsequent evaluation of inflammation severity. From Day 13 to Day 28 of the experiment, the paw volume of the rats was measured repeatedly every 3 days. The degree of paw swelling was quantified by calculating the change in paw volume relative to the baseline. […] The cytokine levels in serum were measured. […]

[5] = molecular target: T1, CTSC (Rattus norvegicus, UniProt P80067); experiment: AIA model, serum CTSC activity; type: in vivo, Sprague-Dawley rats; conditions: high dose 60 mg/kg gavage, 15 days
T1 construct: from tissue; host or cells: serum of Sprague-Dawley rats (AIA model)
Procedure: as §1

[6] = molecular target: T2, CTSS (Homo sapiens, UniProt P25774); experiment: Human recombinant cathepsins isolated enzyme assay, CTSS; type: biochemical; conditions: read-out: CTSS Enz (IC50: μM)
T2 construct: purchased R&D Systems
Text: The protocol for evaluating the inhibitory potency of compounds against other cathepsins referred to the CTSC activity assay. Recombinant human CTSB, CTSL, CTSS and CTSK for testing were also purchased from R&D Systems Biotechnology Company. Recombinant human Cat G, NE, and PR3 For testing were purchased from MedChemExpress. A multi-functional microplate reader was used to measure the absorption of Z-Leu-Arg-AMC at excitation/emission wavelengths of 380/460 nm to assess the activity changes of CTSB and CTSL, while the absorption of MCA-Arg-Pro-Lys-Pro-Val-Glu-NVAL-Trp-Arg-Lys(DNP)-NH2 at 320/405 nm was measured to evaluate the activity changes of CTSS and CTSK. Different assay buffers were prepared for diluting samples and measuring the activities of specific NSPs: a buffer containing 50 mM Tris and 750 mM NaCl (pH 7.4) was used for NE and PR3; a buffer containing 50 mM Tris, 750 mM NaCl, 5 mM EDTA (pH 7.4) was used for Cat G; and a buffer containing 25 mM MES, 50 mM NaCl, 5 mM DTT (pH 6.0) was used for CTSC. Synthetic substrates were employed to assess the activities of NSPs and CTSC: H-Gly-Arg-AMC for CTSC, N-MeSuc-Ala-Ala-Pro-Val-pNA for NE, aminobenzoyl-Val-Ala-Asp-Cys-Ala-Asp-Gln-ethylenediamine 2,4-dinitrophenyl for PR3, and N-Suc-Ala-Ala-Pro-Phe-pNA for Cat G. Each group of tests was independently repeated at least 3 times, and IC50 values were calculated using SPSS 10.0.

T2 sequence (P25774 115-331): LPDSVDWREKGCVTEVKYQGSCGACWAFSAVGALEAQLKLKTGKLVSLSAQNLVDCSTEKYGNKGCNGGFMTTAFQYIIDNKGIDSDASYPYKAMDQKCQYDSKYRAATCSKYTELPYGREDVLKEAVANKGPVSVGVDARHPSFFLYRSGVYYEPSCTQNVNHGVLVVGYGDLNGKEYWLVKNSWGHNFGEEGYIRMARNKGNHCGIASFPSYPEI
Chain of CTSC (Homo sapiens, UniProt P53634) (P53634 25-463): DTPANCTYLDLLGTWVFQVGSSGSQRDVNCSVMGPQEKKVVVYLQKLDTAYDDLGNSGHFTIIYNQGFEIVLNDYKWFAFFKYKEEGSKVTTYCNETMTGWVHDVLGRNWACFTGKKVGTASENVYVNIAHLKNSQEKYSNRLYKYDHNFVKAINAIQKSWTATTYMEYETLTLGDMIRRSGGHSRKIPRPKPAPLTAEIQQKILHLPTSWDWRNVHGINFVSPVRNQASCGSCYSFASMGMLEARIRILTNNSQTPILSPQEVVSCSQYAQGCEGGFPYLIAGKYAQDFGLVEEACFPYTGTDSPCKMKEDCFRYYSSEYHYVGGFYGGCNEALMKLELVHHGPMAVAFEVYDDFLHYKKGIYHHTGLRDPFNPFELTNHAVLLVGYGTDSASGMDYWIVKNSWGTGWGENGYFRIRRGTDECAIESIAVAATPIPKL
Chain of Dipeptidyl Peptidase 4 (P27487 whole entry, species assumed): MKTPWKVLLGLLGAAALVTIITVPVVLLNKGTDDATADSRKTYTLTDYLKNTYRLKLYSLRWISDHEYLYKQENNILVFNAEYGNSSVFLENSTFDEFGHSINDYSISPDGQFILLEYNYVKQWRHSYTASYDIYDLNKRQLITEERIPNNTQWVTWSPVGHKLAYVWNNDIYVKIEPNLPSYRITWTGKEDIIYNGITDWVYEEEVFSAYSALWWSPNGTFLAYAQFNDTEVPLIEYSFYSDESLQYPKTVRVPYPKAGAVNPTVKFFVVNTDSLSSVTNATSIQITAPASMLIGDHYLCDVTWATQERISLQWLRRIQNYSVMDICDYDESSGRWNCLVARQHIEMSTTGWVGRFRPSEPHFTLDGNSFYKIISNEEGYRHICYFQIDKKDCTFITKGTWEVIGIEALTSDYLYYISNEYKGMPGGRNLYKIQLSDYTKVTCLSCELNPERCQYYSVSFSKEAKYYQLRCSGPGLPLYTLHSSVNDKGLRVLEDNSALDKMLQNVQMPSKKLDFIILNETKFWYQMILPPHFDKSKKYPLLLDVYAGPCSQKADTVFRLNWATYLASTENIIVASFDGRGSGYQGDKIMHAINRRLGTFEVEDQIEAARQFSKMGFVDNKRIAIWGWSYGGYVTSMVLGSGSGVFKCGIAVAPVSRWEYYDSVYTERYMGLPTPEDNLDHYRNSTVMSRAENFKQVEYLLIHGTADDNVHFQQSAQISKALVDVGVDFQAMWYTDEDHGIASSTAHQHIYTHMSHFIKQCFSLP
T1 sequence (P80067 25-462): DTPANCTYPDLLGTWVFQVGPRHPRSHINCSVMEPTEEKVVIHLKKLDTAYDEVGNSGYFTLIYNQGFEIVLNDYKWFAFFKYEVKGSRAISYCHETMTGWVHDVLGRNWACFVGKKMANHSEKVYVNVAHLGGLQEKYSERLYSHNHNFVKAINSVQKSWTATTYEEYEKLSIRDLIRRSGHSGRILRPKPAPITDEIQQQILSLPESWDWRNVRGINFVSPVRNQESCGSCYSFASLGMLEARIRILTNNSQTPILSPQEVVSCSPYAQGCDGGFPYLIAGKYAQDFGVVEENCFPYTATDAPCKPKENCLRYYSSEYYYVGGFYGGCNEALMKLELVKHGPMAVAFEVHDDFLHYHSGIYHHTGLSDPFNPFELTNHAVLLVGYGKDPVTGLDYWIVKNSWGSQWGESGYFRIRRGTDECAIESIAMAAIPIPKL

C[C@@H]1C[C@H]2OC(=O)[C@@]3(C)CCC[C@@](C)([C@@H]23)[C@@]1(O)CCc1ccoc1 [Marrubiin, marrubiin]
IC50 [1]: > 10 µM | residual CTSC activity [2]: less than 8% | toxic reactions and body weight ([3]; 7-day continuous administration): no toxic reactions or significant weight loss were observed | H&E staining of tissues and organs (heart, liver, spleen, lung, kidney) ([3]; 7 days): No pathological changes | serum levels of IL-1β, TNF-α, MCP-1, CXCL2 [4]: significantly lower than those in model group and control group | serum CTSC activity, % of control group [5]: approximately 58% | IC50 [6]: > 5 µM
